# Data published in ChEMBL document CHEMBL4184146, “Interrogating the Roles of Post-Translational Modifications of Non-Histone Proteins” (J Med Chem, 2018).
# What was measured:
# [1] = Inhibition of UAE (unknown origin) assessed as decrease in formation of E2-UBL thioester reaction product; parameters: species or system Homo sapiens
# [2] = biological target: T1, Ubiquitin-like modifier-activating enzyme 6 (Homo sapiens, UniProt A0AVT1); assay: Inhibition of UBA6 (unknown origin) assessed as decrease in formation of E2-UBL thioester reaction product
# T1 sequence (A0AVT1 whole entry): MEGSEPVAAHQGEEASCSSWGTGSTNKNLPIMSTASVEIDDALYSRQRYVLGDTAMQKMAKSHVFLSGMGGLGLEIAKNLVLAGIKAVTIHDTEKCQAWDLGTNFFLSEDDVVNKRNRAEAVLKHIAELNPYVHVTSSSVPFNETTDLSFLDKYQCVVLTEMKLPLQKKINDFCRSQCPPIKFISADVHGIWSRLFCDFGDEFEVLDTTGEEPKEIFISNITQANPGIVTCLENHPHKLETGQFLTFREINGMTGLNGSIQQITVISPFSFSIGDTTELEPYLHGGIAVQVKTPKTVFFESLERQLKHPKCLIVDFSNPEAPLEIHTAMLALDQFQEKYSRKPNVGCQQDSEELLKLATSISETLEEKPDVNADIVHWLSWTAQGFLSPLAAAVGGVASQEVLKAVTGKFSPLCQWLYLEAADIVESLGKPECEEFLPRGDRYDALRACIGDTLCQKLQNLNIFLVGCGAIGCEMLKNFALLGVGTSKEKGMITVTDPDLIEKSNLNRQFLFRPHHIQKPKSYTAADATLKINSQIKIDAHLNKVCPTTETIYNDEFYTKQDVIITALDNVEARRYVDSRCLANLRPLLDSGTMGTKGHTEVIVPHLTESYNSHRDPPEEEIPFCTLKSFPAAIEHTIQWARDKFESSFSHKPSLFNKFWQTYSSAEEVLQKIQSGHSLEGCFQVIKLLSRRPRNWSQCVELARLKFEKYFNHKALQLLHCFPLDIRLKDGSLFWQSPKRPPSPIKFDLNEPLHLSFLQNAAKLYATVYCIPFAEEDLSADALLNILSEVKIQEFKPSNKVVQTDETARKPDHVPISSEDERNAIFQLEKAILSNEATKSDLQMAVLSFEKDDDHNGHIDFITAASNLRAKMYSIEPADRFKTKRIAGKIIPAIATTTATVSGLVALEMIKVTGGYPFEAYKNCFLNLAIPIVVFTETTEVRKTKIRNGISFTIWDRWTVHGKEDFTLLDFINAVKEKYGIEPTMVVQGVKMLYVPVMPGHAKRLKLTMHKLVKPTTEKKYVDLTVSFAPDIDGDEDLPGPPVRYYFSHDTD
# [3] = biological target: T2, Ubiquitin-like modifier-activating enzyme ATG7 (Homo sapiens, UniProt O95352); assay: Inhibition of ATG7 (unknown origin) assessed as decrease in formation of E2-UBL thioester reaction product
# T2 sequence (O95352 whole entry): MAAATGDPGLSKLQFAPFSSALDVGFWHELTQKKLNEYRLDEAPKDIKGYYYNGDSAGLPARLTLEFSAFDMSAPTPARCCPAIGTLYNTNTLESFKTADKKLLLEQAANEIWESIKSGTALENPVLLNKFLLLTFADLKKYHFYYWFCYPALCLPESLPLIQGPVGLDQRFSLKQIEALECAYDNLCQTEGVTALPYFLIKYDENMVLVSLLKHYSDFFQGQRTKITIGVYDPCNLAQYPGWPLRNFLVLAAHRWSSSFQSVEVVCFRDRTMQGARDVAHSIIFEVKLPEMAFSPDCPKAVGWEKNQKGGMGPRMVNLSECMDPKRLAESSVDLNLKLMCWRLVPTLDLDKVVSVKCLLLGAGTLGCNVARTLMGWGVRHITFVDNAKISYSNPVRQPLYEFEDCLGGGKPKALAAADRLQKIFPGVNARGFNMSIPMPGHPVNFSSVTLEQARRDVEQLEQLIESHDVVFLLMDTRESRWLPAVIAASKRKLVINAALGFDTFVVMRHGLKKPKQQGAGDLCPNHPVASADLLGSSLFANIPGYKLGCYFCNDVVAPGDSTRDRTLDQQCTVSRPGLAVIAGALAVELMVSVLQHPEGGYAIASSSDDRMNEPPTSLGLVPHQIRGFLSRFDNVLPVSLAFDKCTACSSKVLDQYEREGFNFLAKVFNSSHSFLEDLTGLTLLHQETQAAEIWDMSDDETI
# [4] = biological target: SUMO-activating enzyme (Homo sapiens, UniProt Q9UBT2); assay: Inhibition of SAE (unknown origin) assessed as decrease in formation of E2-UBL thioester reaction product; type: protein-complex assay
# [5] = biological target: Serine/threonine-protein kinase B-raf (Homo sapiens, UniProt P15056); assay: Inhibition of BRAF (unknown origin) using MEK1 K97R mutant as substrate preincubated for 60 to 120 mins followed by substrate addition measured after 2 hrs by TR-FRET assay
# [6] = biological target: Protein farnesyltransferase (Homo sapiens, UniProt P49354+P49356); assay: Inhibition of FTase isolated from human Burkitt's lymphoma cells assessed as decrease in transfer of [3H]farnesyl from [3H]farnesyl PPi to H-Ras-CVLS
# [7] = biological target: T3, Protein O-GlcNAcase (Rattus norvegicus, UniProt Q8VIJ5); assay: Inhibition of O-GlcNAcase in rat PC12 cells assessed as induction of OGlcNAcylation after 24 hrs by Western blot method; type: cell-based
# T3 sequence (Q8VIJ5 whole entry): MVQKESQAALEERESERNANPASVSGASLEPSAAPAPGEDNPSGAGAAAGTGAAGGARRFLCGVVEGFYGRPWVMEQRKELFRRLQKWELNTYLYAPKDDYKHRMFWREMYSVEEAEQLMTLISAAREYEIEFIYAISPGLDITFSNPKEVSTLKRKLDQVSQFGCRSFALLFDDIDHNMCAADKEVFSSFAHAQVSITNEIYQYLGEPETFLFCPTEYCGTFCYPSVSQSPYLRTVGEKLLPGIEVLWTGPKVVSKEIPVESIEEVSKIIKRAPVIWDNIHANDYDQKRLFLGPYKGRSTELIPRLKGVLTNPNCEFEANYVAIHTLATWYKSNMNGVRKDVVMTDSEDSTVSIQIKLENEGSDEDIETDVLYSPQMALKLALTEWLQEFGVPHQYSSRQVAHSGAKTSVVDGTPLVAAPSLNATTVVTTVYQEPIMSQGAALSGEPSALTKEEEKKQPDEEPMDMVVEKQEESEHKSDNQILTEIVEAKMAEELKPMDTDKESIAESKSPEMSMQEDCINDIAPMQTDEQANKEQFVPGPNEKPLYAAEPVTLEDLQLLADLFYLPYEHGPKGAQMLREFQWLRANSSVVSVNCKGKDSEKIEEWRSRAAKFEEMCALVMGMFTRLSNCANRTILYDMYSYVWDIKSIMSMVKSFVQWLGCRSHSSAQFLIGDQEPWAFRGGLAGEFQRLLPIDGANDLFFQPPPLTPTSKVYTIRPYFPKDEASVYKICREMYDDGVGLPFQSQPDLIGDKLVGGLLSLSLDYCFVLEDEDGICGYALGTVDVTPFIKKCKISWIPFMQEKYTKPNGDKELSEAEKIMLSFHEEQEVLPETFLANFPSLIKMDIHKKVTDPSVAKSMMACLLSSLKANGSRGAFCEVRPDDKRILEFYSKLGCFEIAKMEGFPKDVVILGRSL
# [8] = biological target: T4, Sharpin/RBCK1/RNF31 (Homo sapiens, UniProt Q96EP0+Q9BYM8+Q9H0F6); assay: Inhibition of petit-LUBAC (unknown origin)-mediated ubiquitylation expressed in Escherichia coli BL21 after 2 hrs in presence of E1, UbcH5c, E3 and ubiquitin
# T4 sequence (Q9H0F6 whole entry): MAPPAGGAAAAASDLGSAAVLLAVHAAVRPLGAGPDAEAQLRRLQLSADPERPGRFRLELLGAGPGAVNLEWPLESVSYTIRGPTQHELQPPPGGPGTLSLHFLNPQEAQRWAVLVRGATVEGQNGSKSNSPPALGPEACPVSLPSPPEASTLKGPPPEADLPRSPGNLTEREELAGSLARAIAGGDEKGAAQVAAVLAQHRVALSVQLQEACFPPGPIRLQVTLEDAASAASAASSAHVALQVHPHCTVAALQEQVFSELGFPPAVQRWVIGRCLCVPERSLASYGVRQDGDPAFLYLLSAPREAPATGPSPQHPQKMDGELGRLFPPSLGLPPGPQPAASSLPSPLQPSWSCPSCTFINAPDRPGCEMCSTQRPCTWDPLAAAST
# T4 sequence (Q9BYM8 whole entry): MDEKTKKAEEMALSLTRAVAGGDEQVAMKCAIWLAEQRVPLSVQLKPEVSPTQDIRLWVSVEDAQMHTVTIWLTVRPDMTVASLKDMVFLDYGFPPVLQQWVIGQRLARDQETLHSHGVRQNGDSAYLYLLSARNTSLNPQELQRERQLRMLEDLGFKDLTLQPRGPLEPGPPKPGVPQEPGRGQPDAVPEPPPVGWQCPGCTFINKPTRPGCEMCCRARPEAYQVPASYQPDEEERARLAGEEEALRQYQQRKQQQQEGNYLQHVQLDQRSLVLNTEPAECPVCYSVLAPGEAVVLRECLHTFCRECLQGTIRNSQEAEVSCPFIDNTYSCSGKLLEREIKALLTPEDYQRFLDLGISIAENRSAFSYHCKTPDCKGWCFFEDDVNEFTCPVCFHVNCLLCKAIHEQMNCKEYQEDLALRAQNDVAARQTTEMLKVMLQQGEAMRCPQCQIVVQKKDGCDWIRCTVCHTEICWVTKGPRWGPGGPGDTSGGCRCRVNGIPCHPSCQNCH
# T4 sequence (Q96EP0 whole entry): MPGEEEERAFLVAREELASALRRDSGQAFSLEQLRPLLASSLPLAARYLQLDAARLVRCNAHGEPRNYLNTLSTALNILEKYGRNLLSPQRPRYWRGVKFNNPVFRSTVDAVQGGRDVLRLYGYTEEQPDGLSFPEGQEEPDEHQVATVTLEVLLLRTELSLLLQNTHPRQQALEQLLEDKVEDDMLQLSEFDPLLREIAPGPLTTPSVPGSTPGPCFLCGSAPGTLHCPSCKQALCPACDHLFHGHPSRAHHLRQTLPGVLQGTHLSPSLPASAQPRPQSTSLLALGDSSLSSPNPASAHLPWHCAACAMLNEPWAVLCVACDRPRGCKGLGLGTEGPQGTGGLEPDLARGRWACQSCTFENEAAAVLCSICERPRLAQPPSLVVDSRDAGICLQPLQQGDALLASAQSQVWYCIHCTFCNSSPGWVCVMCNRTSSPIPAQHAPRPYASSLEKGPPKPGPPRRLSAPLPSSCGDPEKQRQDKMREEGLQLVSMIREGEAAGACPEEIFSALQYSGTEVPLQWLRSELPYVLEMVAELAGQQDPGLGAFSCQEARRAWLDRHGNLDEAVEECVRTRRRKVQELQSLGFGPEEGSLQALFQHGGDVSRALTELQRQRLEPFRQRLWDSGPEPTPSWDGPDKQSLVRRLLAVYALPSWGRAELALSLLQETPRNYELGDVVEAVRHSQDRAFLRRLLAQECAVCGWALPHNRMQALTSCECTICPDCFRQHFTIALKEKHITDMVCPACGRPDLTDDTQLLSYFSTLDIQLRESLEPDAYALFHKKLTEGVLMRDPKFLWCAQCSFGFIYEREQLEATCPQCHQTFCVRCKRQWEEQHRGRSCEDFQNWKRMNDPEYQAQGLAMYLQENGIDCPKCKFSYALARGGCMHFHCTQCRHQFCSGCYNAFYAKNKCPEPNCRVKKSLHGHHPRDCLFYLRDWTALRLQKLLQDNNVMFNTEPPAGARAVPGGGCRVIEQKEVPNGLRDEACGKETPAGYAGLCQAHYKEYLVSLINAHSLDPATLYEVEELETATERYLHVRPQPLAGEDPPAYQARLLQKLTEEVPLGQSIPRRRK
# [9] = biological target: Histone acetyltransferase p300 (Homo sapiens, UniProt Q09472); assay: Inhibition of full length His6-tagged recombinant p300 (unknown origin) expressed in baculovirus infected Sf21 cells using human histone as substrate preincubated for 10 mins followed by [3H]acetyl-CoA addition measured after 10 mins by liquid scintillation counting method
# [10] = biological target: Geranylgeranyl transferase type I (Homo sapiens, UniProt P49354+P53609); assay: Inhibition of GGTase1 isolated from Kirsten virus-transformed human osteosarcoma cells using biotin-YRASNRSCAIL peptide as substrate after 120 mins in presence of [ 1-[ 3 H](n)]geranylgeranylpyrophosphate by scintillation proximity assay
# [11] = biological target: c-Jun N-terminal kinase, JNK (Homo sapiens, UniProt P45983+P53779+P45984); assay: Inhibition of JNK (unknown origin); type: protein assay
# [12] = Inhibition of SCF (SKP2) complex (unknown origin) expressed in baculovirus infected Sf9 cells assessed as decrease in phospho-p27 Kip1 ubiquitination preincubated for 10 to 45 mins followed by phospho-p27 Kip1 addition measured after 1 to 3 hrs by immunoblot method; parameters: species or system Homo sapiens
# Sequence of SUMO-activating enzyme (Q9UBE0 whole entry): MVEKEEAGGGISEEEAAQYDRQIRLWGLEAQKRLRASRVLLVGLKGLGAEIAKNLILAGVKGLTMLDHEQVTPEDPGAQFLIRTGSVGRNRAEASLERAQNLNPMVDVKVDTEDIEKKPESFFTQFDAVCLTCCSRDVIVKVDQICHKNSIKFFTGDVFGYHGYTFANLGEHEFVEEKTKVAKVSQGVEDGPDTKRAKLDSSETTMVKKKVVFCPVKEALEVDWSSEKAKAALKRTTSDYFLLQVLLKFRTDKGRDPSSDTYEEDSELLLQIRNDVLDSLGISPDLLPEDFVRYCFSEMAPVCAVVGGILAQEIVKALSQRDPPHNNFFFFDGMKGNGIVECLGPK
# Sequence of SUMO-activating enzyme (Q9UBT2 whole entry): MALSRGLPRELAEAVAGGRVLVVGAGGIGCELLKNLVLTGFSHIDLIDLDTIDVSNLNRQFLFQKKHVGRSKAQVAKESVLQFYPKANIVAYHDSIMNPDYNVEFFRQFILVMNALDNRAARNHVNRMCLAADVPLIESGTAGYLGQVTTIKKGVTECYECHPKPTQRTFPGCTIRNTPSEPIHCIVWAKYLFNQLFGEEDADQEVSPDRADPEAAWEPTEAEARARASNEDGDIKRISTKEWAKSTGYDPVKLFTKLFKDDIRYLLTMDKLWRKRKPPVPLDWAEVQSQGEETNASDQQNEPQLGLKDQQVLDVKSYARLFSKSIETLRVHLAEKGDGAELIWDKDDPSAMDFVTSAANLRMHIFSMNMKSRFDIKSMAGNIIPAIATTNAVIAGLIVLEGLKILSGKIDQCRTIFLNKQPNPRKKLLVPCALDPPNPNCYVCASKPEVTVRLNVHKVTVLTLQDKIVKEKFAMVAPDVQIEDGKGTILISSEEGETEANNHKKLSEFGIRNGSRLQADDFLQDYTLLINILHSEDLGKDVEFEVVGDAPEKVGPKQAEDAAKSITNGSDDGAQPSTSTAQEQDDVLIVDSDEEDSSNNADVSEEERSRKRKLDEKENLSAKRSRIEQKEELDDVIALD
# Sequence of Serine/threonine-protein kinase B-raf (P15056 whole entry): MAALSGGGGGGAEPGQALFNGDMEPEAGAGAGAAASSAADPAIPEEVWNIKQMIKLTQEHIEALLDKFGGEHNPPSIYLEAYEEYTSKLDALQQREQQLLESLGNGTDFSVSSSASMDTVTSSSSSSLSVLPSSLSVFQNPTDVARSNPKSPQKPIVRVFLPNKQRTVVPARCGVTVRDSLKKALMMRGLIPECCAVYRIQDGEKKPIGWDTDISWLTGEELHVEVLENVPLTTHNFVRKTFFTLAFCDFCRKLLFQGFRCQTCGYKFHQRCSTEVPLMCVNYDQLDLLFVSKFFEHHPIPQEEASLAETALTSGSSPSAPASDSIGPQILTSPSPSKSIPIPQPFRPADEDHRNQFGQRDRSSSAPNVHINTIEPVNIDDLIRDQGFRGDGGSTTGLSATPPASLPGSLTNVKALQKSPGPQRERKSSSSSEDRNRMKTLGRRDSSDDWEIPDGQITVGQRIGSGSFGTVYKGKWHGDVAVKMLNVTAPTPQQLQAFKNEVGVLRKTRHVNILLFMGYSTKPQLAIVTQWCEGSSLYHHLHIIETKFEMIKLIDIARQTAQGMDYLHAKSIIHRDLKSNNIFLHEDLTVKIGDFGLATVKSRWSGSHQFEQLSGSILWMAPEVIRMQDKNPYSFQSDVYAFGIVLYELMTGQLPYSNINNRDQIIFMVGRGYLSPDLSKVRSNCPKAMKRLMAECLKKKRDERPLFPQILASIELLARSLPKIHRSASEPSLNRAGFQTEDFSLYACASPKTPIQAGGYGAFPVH
# Sequence of Histone acetyltransferase p300 (Q09472 whole entry): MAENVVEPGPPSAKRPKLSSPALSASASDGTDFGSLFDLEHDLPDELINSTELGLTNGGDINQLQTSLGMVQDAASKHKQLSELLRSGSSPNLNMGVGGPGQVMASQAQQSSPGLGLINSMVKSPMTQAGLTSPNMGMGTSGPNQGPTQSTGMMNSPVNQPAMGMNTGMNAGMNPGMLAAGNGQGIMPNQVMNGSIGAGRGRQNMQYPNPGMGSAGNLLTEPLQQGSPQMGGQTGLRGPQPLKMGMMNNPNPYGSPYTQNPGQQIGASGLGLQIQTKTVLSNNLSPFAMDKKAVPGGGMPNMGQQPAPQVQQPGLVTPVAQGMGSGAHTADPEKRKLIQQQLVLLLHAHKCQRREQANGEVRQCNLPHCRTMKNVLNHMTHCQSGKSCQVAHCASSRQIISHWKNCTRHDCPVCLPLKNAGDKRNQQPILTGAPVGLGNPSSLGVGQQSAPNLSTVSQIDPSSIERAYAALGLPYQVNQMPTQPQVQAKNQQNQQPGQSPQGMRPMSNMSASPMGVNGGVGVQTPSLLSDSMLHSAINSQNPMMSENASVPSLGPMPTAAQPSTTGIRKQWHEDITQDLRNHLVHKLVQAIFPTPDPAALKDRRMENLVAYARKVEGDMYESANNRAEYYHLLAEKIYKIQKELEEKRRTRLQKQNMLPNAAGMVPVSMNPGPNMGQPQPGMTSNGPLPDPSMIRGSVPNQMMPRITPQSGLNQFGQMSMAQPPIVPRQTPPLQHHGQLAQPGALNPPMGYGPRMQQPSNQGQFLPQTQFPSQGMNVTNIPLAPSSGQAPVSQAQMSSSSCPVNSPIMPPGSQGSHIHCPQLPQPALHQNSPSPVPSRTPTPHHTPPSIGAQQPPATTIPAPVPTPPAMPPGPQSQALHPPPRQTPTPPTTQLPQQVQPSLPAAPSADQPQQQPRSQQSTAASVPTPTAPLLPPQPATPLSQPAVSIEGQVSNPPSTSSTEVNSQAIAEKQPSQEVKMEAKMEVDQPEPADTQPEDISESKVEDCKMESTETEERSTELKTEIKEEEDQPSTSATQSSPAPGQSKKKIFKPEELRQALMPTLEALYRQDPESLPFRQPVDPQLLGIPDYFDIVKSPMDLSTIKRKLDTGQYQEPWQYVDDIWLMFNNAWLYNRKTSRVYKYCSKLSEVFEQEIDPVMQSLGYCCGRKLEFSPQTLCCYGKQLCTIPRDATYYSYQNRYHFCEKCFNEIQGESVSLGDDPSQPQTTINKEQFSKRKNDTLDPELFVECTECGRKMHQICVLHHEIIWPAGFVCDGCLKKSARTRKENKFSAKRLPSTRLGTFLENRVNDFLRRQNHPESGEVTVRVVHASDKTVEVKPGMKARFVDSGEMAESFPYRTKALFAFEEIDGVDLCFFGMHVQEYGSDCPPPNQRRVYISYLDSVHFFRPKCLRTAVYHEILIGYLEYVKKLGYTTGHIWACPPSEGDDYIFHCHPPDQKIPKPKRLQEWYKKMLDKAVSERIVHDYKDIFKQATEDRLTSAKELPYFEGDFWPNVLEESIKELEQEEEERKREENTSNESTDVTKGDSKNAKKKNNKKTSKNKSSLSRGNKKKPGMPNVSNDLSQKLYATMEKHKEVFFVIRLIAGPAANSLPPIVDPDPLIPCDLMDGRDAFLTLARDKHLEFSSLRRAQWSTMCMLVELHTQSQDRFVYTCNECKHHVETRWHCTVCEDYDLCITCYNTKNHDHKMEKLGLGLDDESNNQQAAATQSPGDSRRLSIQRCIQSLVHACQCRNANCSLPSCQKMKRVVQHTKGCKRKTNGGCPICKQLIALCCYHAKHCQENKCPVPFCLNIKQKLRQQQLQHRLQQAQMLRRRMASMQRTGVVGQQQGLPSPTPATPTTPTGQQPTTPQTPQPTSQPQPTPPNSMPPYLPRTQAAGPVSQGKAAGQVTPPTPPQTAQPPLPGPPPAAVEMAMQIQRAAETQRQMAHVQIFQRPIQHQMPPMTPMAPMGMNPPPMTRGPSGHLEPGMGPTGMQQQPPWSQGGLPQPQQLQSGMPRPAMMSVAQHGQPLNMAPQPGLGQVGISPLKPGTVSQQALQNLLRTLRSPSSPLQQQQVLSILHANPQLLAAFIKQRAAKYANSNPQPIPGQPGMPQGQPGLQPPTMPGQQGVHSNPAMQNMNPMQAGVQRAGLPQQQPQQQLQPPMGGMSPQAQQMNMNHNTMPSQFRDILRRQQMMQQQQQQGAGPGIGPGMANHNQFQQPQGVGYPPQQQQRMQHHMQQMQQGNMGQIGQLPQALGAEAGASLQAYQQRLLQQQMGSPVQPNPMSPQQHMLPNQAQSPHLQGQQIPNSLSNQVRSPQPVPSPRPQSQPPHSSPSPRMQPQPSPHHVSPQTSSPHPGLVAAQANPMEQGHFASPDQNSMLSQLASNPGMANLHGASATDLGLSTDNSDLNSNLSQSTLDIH
smiles,measurement,setting,value
NS(=O)(=O)OC[C@@H]1C[C@@H](n2ccc3c(N[C@H]4CCc5ccccc54)ncnc32)C[C@@H]1O [PEVONEDISTAT],IC50,[1],> 1000 nM
same,IC50,[2],> 1000 nM
same,IC50,[3],> 1000 nM
same,IC50,[4],> 1000 nM
O=C1CCc2c(Oc3ccc4c(c3)[C@@H]3[C@H](O4)[C@H]3c3nc4ccc(C(F)(F)F)cc4[nH]3)ccnc2N1 [LIFIRAFENIB],IC50,[5],23 nM
CSCC[C@@H](NC(=O)c1ccc(CNCc2c[nH]cn2)cc1-c1ccccc1C)C(=O)O,IC50,[6],1.4 nM
CCNC1=N[C@@H]2[C@@H](O)[C@H](O)[C@@H](CO)O[C@@H]2S1,EC50,[7],30 nM
CN1C(=O)[C@]23CC4=CC=C[C@H](O)[C@H]4N2C(=O)[C@@]1(CO)SS3 [GLIOTOXIN],IC50,[8],510 nM
C=C(C)[C@H](CC=C(C)C)C[C@]12C[C@H](CC=C(C)C)C(C)(C)[C@](CC=C(C)C)(C(=O)C(C(=O)c3ccc(O)c(O)c3)=C1O)C2=O,IC50,[9],7000 nM
COC(=O)[C@H](CCSC)NC(=O)c1ccc(NC[C@@H](N)CS)cc1-c1ccccc1,IC50,[6],0.5 nM
Cn1cncc1[C@@](N)(c1ccc(Cl)cc1)c1ccc2c(c1)c(-c1cccc(Cl)c1)cc(=O)n2C [TIPIFARNIB],IC50,[10],> 1000 nM
Nc1nnc(Sc2ncc([N+](=O)[O-])s2)s1,IC50,[11],700 nM
COCC(=O)N[C@@H](Cc1ccc(-c2cc(Cl)cc(Cl)c2)cc1)[C@H](O)[C@@H](O)C(=O)O,IC50,[12],1700 nM
